Assay results reported in patent publication US20080280879A1, “SUBSTITUTED HETEROCYCLIC DERIVATIVES AND THEIR PHARMACEUTICAL USE AND COMPOSITIONS” (priority 2007, published 2008).
In brackets after ≈: the same amount, converted by molar mass.

Columns and labels:
Type in all cases: cell-based, Staphylococcus aureus
Staph aureus 1095 MRSA = assay: MIC, microtiter broth dilution (CLSI M7-A7), Assay 1, Table 12 column A, no serum; conditions: Assay 1, no serum; for MIC: Staphylococcus aureus, MRSA
In short: (§1)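 Broth microdilution in microtiter trays per CLSI M7-A7, interpreted per M100-S16; MIC (μg/ml) is the lowest concentration preventing visible growth. Serum condition used Mueller-Hinton Broth with 50% pooled inactivated human serum. Repeated runs reported as geometric mean.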

Staph aureus 1146 [1] = assay: MIC, microtiter broth dilution (CLSI M7-A7), Assay 1, Table 12 column B, no serum; conditions: for MIC: Staphylococcus aureus, 1146, Staph aureus 1146, Assay 1, no serum; for MIC, column B: Staph aureus 1146, Assay 1, no serum
In short: as §1

Staph aureus 1146 [2] = assay: MIC in Mueller-Hinton Broth with 50% pooled inactivated human serum, Assay 1, Table 12; conditions: for MIC: Staphylococcus aureus, 1146, Staph aureus 1146, Assay 1, 50% human serum, read-out: MIC, column C; for MIC, column C: Staph aureus 1146, Assay 1, 50% human serum
In short: as §1

Staph aureus 2811 = assay: MIC, microtiter broth dilution (CLSI M7-A7), Assay 1, Table 12 column D, no serum; conditions: for MIC: Staphylococcus aureus, 2811, Staph aureus 2811, Assay 1, no serum; for MIC, column D: Staph aureus 2811, Assay 1, no serum
In short: as §1

Staph aureus 2812 = assay: MIC, microtiter broth dilution (CLSI M7-A7), Assay 1, Table 12 column E, no serum; conditions: for MIC: Staphylococcus aureus, 2812, Staph aureus 2812, Assay 1, no serum; for MIC, column E: Staph aureus 2812, Assay 1, no serum
In short: as §1

Row | MIC (Staph aureus 1095 MRSA) [µg/mL] | MIC (Staph aureus 1146 [1]) [µg/mL] | MIC (Staph aureus 1146 [2]) [µg/mL] | MIC (Staph aureus 2811) [µg/mL] | MIC (Staph aureus 2812) [µg/mL] | MIC, column A (Staph aureus 1095 MRSA) [µg/mL] | MIC, column B (Staph aureus 1146 [1]) [µg/mL] | MIC, column C (Staph aureus 1146 [2]) [µg/mL] | MIC, column D (Staph aureus 2811) [µg/mL] | MIC, column E (Staph aureus 2812) [µg/mL] | Structure (SMILES)
1 | 16 (≈ 31 µM) | 2 (≈ 3.88 µM) | 8 (≈ 15.5 µM) | 2 (≈ 3.88 µM) | 4 (≈ 7.76 µM) |  |  |  |  |  | O=C(O)[C@H]1CN(C2CC(c3c(F)cccc3F)C2)CC[C@H]1CCC(O)c1c(F)cnc2ccc(O)nc12 (stereo partly drawn) [Example 201, (3R,4R)-1-[3-(2,6-difluorophenyl)cyclobutyl]-4-[3-(3-fluoro-6-hydroxy-1,5-naphthyridin-4-yl)-3-hydroxypropyl]piperidine-3-carboxylic acid]
2 | 8 (≈ 15.2 µM) | 2 (≈ 3.81 µM) | 64 (≈ 122 µM) | 2 (≈ 3.81 µM) | 4 (≈ 7.62 µM) |  |  |  |  |  | COc1ccc2nccc(C(O)CC[C@@H]3CCN(C4CC(Cc5cc(F)ccc5F)C4)C[C@@H]3C(=O)O)c2c1 (stereo partly drawn) [Example 202, (3R,4R)-1-[3-(2,5-difluorobenzyl)cyclobutyl]-4-[3-hydroxy-3-(6-methoxyquinolin-4-yl)propyl]piperidine-3-carboxylic acid]
3 |  |  |  |  |  | 0.250 (≈ 0.459 µM) | 0.125 (≈ 0.229 µM) | 16.0 (≈ 29.4 µM) | 0.125 (≈ 0.229 µM) | 0.125 (≈ 0.229 µM) | COc1ccc2ncc(Cl)c(C(O)CC[C@@H]3CCN(C4CC(c5cc(F)ccc5F)C4)C[C@@H]3C(=O)O)c2c1 (stereo partly drawn) [Example 203, (3R,4R)-4-[3-(3-chloro-6-methoxyquinolin-4-yl)-3-hydroxypropyl]-1-[3-(2,5-difluorophenyl)cyclobutyl]piperidine-3-carboxylic acid]
4 |  |  |  |  |  | 0.250 (≈ 0.459 µM) | 0.125 (≈ 0.229 µM) | 4.00 (≈ 7.34 µM) | 0.125 (≈ 0.229 µM) | 0.250 (≈ 0.459 µM) | COc1ccc2ncc(Cl)c(C(O)CC[C@@H]3CCN(C4CC(c5cc(F)ccc5F)C4)C[C@@H]3C(=O)O)c2c1 (stereo partly drawn) [Example 204, (3R,4R)-4-[3-(3-chloro-6-methoxyquinolin-4-yl)-3-hydroxypropyl]-1-[3-(2,5-difluorophenyl)cyclobutyl]piperidine-3-carboxylic acid]
5 | < 0.0625 | < 0.0625 | 2 (≈ 3.78 µM) | < 0.0625 | < 0.0625 |  |  |  |  |  | COc1ccc2ncc(F)c(C(O)CC[C@@H]3CCN(C4CC(c5cc(F)ccc5F)C4)C[C@@H]3C(=O)O)c2n1 (stereo partly drawn) [Example 205, (3R,4R)-1-[3-(2,5-difluorophenyl)cyclobutyl]-4-[3-(3-fluoro-6-methoxy-1,5-naphthyridin-4-yl)-3-hydroxypropyl]piperidine-3-carboxylic acid]
6 | < 0.0625 | < 0.0625 | 64 (≈ 124 µM) | < 0.0625 | < 0.0625 |  |  |  |  |  | COc1ccc2ncc(Cl)c(CCCC3(C(=O)O)CCN(C4CC(c5cc(F)ccc5F)C4)C3)c2c1 (centres unmarked) [Example 207, 3-[3-(3-chloro-6-methoxyquinolin-4-yl)propyl]-1-[3-(2,5-difluorophenyl)cyclobutyl] pyrrolidine-3-carboxylic acid]
7 |  |  |  |  |  | <0.0625 | <0.0625 | 1.00 (≈ 1.83 µM) | <0.0625 | <0.0625 | COc1ccc2ncc(Cl)c(C(O)CC[C@@H]3CCN(C4CC(c5cc(F)ccc5F)C4)C[C@@H]3C(=O)O)c2c1 (stereo partly drawn) [Example 209, (3R,4R)-4-[3-(3-chloro-6-methoxyquinolin-4-yl)-3-hydroxypropyl]-1-[3-(2,5-difluorophenyl)cyclobutyl]piperidine-3-carboxylic acid]
8 |  |  |  |  |  | <0.0625 | <0.0625 | 16.0 (≈ 29.4 µM) | <0.0625 | <0.0625 | COc1ccc2ncc(Cl)c(C(O)CC[C@@H]3CCN(C4CC(c5cc(F)ccc5F)C4)C[C@@H]3C(=O)O)c2c1 (stereo partly drawn) [Example 210, (3R,4R)-4-[3-(3-chloro-6-methoxyquinolin-4-yl)-3-hydroxypropyl]-1-[3-(2,5-difluorophenyl)cyclobutyl]piperidine-3-carboxylic acid]
9 |  |  |  |  |  | <0.0625 | <0.0625 | 0.250 (≈ 0.491 µM) | <0.0625 | <0.0625 | COc1ccc2ncc(Cl)c(C(O)CC[C@@H]3CCN(C4CC(c5ccccc5)C4)C[C@@H]3C(=O)O)c2c1 (stereo partly drawn) [Example 211, (3R,4R)-4-[3-(3-chloro-6-methoxyquinolin-4-yl)-3-hydroxypropyl]-1-(3-phenylcyclobutyl)piperidine-3-carboxylic acid]
10 |  |  |  |  |  | <0.0625 | <0.0625 | 2.00 (≈ 3.93 µM) | <0.0625 | <0.0625 | COc1ccc2ncc(Cl)c(C(O)CC[C@@H]3CCN(C4CC(c5ccccc5)C4)C[C@@H]3C(=O)O)c2c1 (stereo partly drawn) [Example 212, (3R,4R)-4-[3-(3-chloro-6-methoxyquinolin-4-yl)-3-hydroxypropyl]-1-(3-phenylcyclobutyl)piperidine-3-carboxylic acid]
11 |  |  |  |  |  | <0.0625 | <0.0625 | 0.500 (≈ 0.917 µM) | <0.0625 | <0.0625 | COc1ccc2ncc(Cl)c(C(O)CC[C@@H]3CCN(C4CC(c5c(F)cccc5F)C4)C[C@@H]3C(=O)O)c2c1 (stereo partly drawn) [Example 213, (3R,4R)-4-[3-(3-chloro-6-methoxyquinolin-4-yl)-3-hydroxypropyl]-1-[3-(2,6-difluorophenyl)cyclobutyl]piperidine-3-carboxylic acid]
12 |  |  |  |  |  | <0.0625 | <0.0625 | 2.00 (≈ 3.67 µM) | <0.0625 | <0.0625 | COc1ccc2ncc(Cl)c(C(O)CC[C@@H]3CCN(C4CC(c5c(F)cccc5F)C4)C[C@@H]3C(=O)O)c2c1 (stereo partly drawn) [Example 214, (3R,4R)-4-[3-(3-chloro-6-methoxyquinolin-4-yl)-3-hydroxypropyl]-1-[3-(2,6-difluorophenyl)cyclobutyl]piperidine-3-carboxylic acid]
13 | < 0.0625 | < 0.0625 | 1 (≈ 1.89 µM) | < 0.0625 | < 0.0625 |  |  |  |  |  | COc1ccc2ncc(F)c(C(O)CC[C@@H]3CCN([C@H]4C[C@H](c5c(F)cccc5F)C4)C[C@@H]3C(=O)O)c2c1 (stereo partly drawn) [Example 215, (3R,4R)-1-[trans-3-(2,6-difluorophenyl)cyclobutyl]-4-[3-(3-fluoro-6-methoxyquinolin-4-yl)-3-hydroxypropyl] piperidine-3-carboxylic acid]
14 | > 64 | 16 (≈ 30.9 µM) | 64 (≈ 124 µM) | 8 (≈ 15.5 µM) | 32 (≈ 61.8 µM) |  |  |  |  |  | COc1ccc2nccc([C@@H](O)CC[C@@H]3CCN(C4CC(c5ccc(F)c(C#N)c5)C4)C[C@@H]3C(=O)O)c2c1 (stereo partly drawn) [Example 216, (3R,4R)-1-[3-(3-cyano-4-fluorophenyl)cyclobutyl]-4-[(3S)-3-hydroxy-3-(6-methoxyquinolin-4-yl)propyl] piperidine-3-carboxylic acid]
15 |  |  |  |  |  | 0.125 (≈ 0.236 µM) | 0.0600 (≈ 0.113 µM) | 2.00 (≈ 3.78 µM) | 0.125 (≈ 0.236 µM) | 0.0600 (≈ 0.113 µM) | COc1ccc2ncc(F)c(C(O)CC[C@@H]3CCN(C4CC(c5cc(F)ccc5F)C4)C[C@@H]3C(=O)O)c2n1 (stereo partly drawn) [Example 217, (3R,4R)-1-[3-(2,5-difluorophenyl)cyclobutyl]-4-[3-(3-fluoro-6-methoxy-1,5-naphthyridin-4-yl)-3-hydroxypropyl]piperidine-3-carboxylic acid]
16 |  |  |  |  |  | 0.125 (≈ 0.236 µM) | <0.0625 | 2.00 (≈ 3.78 µM) | <0.0625 | <0.0625 | COc1ccc2ncc(F)c(C(O)CC[C@@H]3CCN(C4CC(c5cc(F)ccc5F)C4)C[C@@H]3C(=O)O)c2n1 (stereo partly drawn) [Example 218, (3R,4R)-1-[3-(2,5-difluorophenyl)cyclobutyl]-4-[3-(3-fluoro-6-methoxy-1,5-naphthyridin-4-yl)-3-hydroxypropyl]piperidine-3-carboxylic acid]

Row | Structure (SMILES) | MIC (Staph aureus 1095 MRSA) [µg/mL] | MIC (Staph aureus 1146 [1]) [µg/mL] | MIC (Staph aureus 1146 [2]) [µg/mL] | MIC (Staph aureus 2811) [µg/mL] | MIC (Staph aureus 2812) [µg/mL] | MIC, column A (Staph aureus 1095 MRSA) [µg/mL] | MIC, column B (Staph aureus 1146 [1]) [µg/mL] | MIC, column C (Staph aureus 1146 [2]) [µg/mL] | MIC, column D (Staph aureus 2811) [µg/mL] | MIC, column E (Staph aureus 2812) [µg/mL]
17 | COc1ccc2nccc([C@@H](O)CC[C@@H]3CCN(C4CC(c5cccc(OC)c5F)C4)C[C@@H]3C(=O)O)c2c1 (stereo partly drawn) [Example 208, (3R,4R)-1-[3-(2-fluoro-3-methoxyphenyl)cyclobutyl]-4-[(3S)-3-hydroxy-3-(6-methoxyquinolin-4-yl)propyl]piperidine-3-carboxylic acid] | 64 (≈ 122 µM) | 32 (≈ 61.2 µM) | > 64 | 32 (≈ 61.2 µM) | 64 (≈ 122 µM) |  |  |  |  | 
18 | COc1ccc(C2CC(N3CC[C@@H](CC[C@H](O)c4ccnc5ccc(OC)cc45)[C@@H](C(=O)O)C3)C2)c(F)c1 (stereo partly drawn) [Example 220, (3R,4R)-1-[3-(2-fluoro-4-methoxyphenyl)cyclobutyl]-4-[(3S)-3-hydroxy-3-(6-methoxyquinolin-4-yl)propyl]piperidine-3-carboxylic acid] | 64 (≈ 122 µM) | 32 (≈ 61.2 µM) | > 64 | 16 (≈ 30.6 µM) | 32 (≈ 61.2 µM) |  |  |  |  | 
19 | COc1ccc2ncc(F)c([C@@H](O)CC[C@@H]3CCN(C4CC(c5cc(F)cc(F)c5)C4)C[C@@H]3C(=O)O)c2c1 (stereo partly drawn) [Example 221, (3R,4R)-1-[3-(3,5-difluorophenyl)cyclobutyl]-4-[(3S)-3-(3-fluoro-6-methoxyquinolin-4-yl)-3-hydroxypropyl] piperidine-3-carboxylic acid] | 1 (≈ 1.89 µM) | 0.25 (≈ 0.473 µM) | 4 (≈ 7.57 µM) | 0.25 (≈ 0.473 µM) | 0.25 (≈ 0.473 µM) |  |  |  |  | 
